Source: paper PMC2894858 (PLoS ONE, 2010)
Read-outs that look alike come from different tables or passages of the source. Non-standard residues stand in square brackets, D forms with d. Residues, ends and D or L forms follow the SMILES beside them. Aib = CC(C)(N)C(=O)O

Experiments:
BoNT/A LC [1] = target: T1, BoNT/A LC (Clostridium botulinum, UniProt P0DPI0); details: cited from earlier work; for IC50: read-out: Reported Ki (cell: IC50)
BoNT/A LC [2] = target: T1, BoNT/A LC; assay: biochemical; assay type: biochemical; details: for Ki range in words: pH 7.3
Target sequence in this assay (P0DPI0 2-448 limits assumed): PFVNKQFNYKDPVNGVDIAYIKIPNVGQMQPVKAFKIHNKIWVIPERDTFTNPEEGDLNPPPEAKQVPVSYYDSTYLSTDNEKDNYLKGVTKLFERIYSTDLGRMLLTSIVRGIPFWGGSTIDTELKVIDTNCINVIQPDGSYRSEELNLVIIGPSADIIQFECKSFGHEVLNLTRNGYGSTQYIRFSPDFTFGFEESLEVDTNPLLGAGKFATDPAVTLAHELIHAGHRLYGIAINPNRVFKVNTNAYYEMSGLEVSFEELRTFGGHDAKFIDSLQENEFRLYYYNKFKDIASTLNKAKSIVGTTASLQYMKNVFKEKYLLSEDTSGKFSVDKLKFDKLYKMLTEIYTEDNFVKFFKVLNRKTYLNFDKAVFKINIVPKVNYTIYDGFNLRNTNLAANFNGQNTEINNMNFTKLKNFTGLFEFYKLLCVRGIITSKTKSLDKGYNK

Question: For `O=C(/C=C/c1ccc(Cl)cc1)NO` [4-chlorocinnamic hydroxamate], which IC50 (BoNT/A LC [1]) is on record?
Answer: Its IC50 is 15 µM.

Question: With `NC(N)=NCCC[C@H](N)C(=O)NO` [ArgHX, arginine hydroxamate] as the compound, how does the IC50 (BoNT/A LC [1]) read?
Answer: The IC50 was 60 µM.

Question: Which Ki (BoNT/A LC [2]) does the source give for `CSCC[C@H](NC(=O)[C@H](C)NC(=O)C(C)(C)NC(=O)[C@H](Cc1c[nH]c2ccccc12)NC(=O)[C@H](CCCNC(=N)N)NC(=O)[C@@H](N)CCCNC(=N)N)C(=O)N[C@@H](CC(C)C)C(N)=O` [JTH-NB72-38] (H-RRW[Aib]AML-NH2) here?
Answer: The Ki was 0.991 ± 0.117 µM.

Question: What about the “Ki range in words” value (BoNT/A LC [2]) of the same compound?
Answer: Its value is “nM range”.

Question: Which Ki (BoNT/A LC [2]) does the source give for `CSCC[C@H](NC(=O)[C@H](C)NC(=O)C(C)(C)NC(=O)[C@H](Cc1ccccc1)NC(=O)[C@H](CCCNC(=N)N)NC(=O)[C@@H](N)CCCNC(=N)N)C(=O)N[C@@H](CC(C)C)C(N)=O` [JTH-NB72-39] (H-RRF[Aib]AML-NH2) here?
Answer: Its Ki is 0.638 ± 0.092 µM.

Question: What about the “Ki range in words” value (BoNT/A LC [2]) of the same compound?
Answer: Its value is “nM range”.

Question: Which results are given for “Fmoc-L-Leu-OH (0.124 g, 0.350 mmol, 3.50 equiv), Fmoc-L-Met-OH (0.130 g, 0.350 mmol, 3.50 equiv), Fmoc-L-Ala-OH (0.115 g, 0.350 mmol, 3.50 equiv), Fmoc-Aib-OH (0.114 g, 0.350 mmol, 3.50 equiv), Fmoc-L-1-Nal-OH (0.153 g, 0.350 mmol, 3.50 equiv), Fmoc-L-Arg(Pbf)-OH (0.227 g, 0.350 mmol, 3.50 equiv), Fmoc-L-Arg(Pbf)-OH (0.227 g, 0.350 mmol, 3.50 equiv) [JTH-NB72-35]”?
Answer: potency compared with I1 (BoNT/A LC [2]): none of them were as potent as I1; potency rank among the three reported PLMs (BoNT/A LC [2]): the most potent of the three reported PLMs; Ki range in words (BoNT/A LC [2]): nM range

Question: For QRATKM, which Ki (BoNT/A LC [1]) is on record?
Answer: Its Ki is 133 µM.

Question: What about the IC50 (BoNT/A LC [1]) of the same compound?
Answer: Its IC50 is 133 µM.
